Values of other authors in patent US20260263463A1, “FORMULATIONS OF DANICOPAN AND METHODS OF USE THEREOF” (Alexion Pharmaceuticals, Inc., priority 2023, published 2026).

Conditions: doses of up to 1,600 mg; cited from earlier work

Structure (SMILES): CC(=O)c1nn(CC(=O)N2C[C@H](F)C[C@H]2C(=O)Nc2cccc(Br)n2)c2ccc(-c3cnc(C)nc3)cc12 [Danicopan, danicopan]
- adverse effects: no adverse effects
